Test results reported in PubChem BioAssay AID2197 (Vanderbilt High Throughput Screening Facility, 2009).
The source made the active and inactive calls. No rule for the calls is given here.

molecular target: Metabotropic glutamate receptor 4 (Homo sapiens) (UniProt Q14833); experiment: PubChem AID 2197; details: CHO hmGluR4/Gqi5 calcium mobilization, PAM potency
Sequence (Q14833 whole entry, looked up): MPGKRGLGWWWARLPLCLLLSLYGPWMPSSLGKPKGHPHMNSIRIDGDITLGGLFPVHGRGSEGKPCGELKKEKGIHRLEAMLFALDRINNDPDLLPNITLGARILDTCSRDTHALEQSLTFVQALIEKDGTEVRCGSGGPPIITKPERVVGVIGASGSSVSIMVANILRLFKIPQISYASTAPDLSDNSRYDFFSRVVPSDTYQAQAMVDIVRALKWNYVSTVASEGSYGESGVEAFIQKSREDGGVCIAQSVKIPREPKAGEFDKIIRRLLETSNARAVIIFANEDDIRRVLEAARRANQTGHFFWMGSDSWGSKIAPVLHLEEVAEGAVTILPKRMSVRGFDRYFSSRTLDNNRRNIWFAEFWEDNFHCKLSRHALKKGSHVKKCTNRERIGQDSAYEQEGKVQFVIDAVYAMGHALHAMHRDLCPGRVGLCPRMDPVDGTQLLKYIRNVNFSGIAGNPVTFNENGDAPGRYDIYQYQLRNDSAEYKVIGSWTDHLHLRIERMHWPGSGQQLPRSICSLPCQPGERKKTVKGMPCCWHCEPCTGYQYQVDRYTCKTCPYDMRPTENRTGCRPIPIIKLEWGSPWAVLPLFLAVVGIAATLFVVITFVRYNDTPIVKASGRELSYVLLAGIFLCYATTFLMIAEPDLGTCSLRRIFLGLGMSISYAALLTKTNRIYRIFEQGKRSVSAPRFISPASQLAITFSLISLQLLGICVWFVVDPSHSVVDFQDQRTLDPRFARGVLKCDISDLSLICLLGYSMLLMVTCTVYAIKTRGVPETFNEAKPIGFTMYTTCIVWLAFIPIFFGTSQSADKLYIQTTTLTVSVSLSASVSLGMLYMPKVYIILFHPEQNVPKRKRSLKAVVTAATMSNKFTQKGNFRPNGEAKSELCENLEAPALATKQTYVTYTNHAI

Row | SMILES | EC50
1 | COc1cc(NC(=O)c2ccccn2)ccc1F | 776 nM
2 | O=C(Nc1ccc(Cl)c(Cl)c1)c1ccncn1 | 2840 nM
3 | O=C(Nc1ccc(F)c(C(F)(F)F)c1)c1ccccn1 | 1530 nM
4 | O=C(Nc1ccc(Cl)c(C(F)(F)F)c1)c1ccccn1 | 2050 nM
5 | COc1cc(NC(=O)c2ccccn2)ccc1C | 562 nM
6 | O=C(Nc1ccc(Cl)c(Cl)c1)c1ccccn1 | 1370 nM
7 | COc1ccc(NC(=O)c2ccccn2)cc1Cl | 1050 nM
8 | O=C(Nc1cccc(Cl)c1)c1ccccn1 | 1090 nM

same assay, conditions: CHO hmGluR4/Gqi5 calcium mobilization, PAM potency; at 30.1 µM (top of the series)

Row | % glutamate max response | SMILES
9 | inactive | O=C(Nc1ccc(N2CCCS2(=O)=O)cc1)c1ccccn1
10 | inactive | O=C(Nc1cccc(C(F)(F)F)n1)c1ccccn1
11 | inactive | COc1cc(NC(=O)c2ccccn2)ncn1
